7 compounds from US20260184663A1, “INDENE COMPOUNDS, PHARMACEUTICAL COMPOSITIONS THEREOF, AND THEIR THERAPEUTIC APPLICATIONS” (NucMito Pharmaceuticals co. Ltd., priority 2022, published 2026) can be followed below.

Read-outs that look alike come from different tables or passages of the source.

Holding throughout (type): cell-based
For test [1], the system named is A431 (epidermoid carcinoma). Nature of the test: Antiproliferative activity (CCK-8 cell viability), A431. The conditions noted are these: Homo sapiens, 72 h, read-out: Antiproliferative activity in cancerous cells, A431 (inhibition of cell growth); for inhibition at 3.3 µM: A-431, Compound concentration: 3.3 μM; for inhibition at 10 µM: A-431, Compound concentration: 10 μM; for inhibition at 30 µM: A-431, Compound concentration: 30 μM. In a few lines: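 A431 epidermoid carcinoma cells grown in DMEM with 10% FBS were plated at 2,000-5,000 cells/well in 96-well plates. After attachment they were exposed to compound at 3.3 μM, 10 μM, or 30 μM for 72 h at 37° C. Viability was then assessed by CCK-8 against DMSO vehicle-treated wells.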

A further test has as its system HeLa (cervical cancer). Nature of the test: Antiproliferative activity (CCK-8 cell viability), HeLa. The conditions noted are these: Homo sapiens, 72 h, read-out: Antiproliferative activity in cancerous cells, HELA (inhibition of cell growth); for inhibition at 3.3 µM: Compound concentration: 3.3 μM; for inhibition at 10 µM: Compound concentration: 10 μM; for inhibition at 30 µM: Compound concentration: 30 μM. In a few lines:
(§1)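 Cells grown in DMEM (HepG2, SW480), MEM (HeLa) or F-12K (A549), each with 10% FBS, then exposed to compound at 3.3, 10 or 30 μM for 72 h at 37 °C. CCK-8 absorbance at 450 nm; viability expressed as percent of DMSO-treated cells, graded as growth inhibition bands.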

A further test relates to HepG2 (liver cancer). In words: Antiproliferative activity (CCK-8 cell viability), HepG2. The following applies: Homo sapiens, 72 h, read-out: Antiproliferative activity in cancerous cells, HepG2 (inhibition of cell growth); for inhibition at 3.3 µM: Compound concentration: 3.3 μM; for inhibition at 10 µM: Compound concentration: 10 μM; for inhibition at 30 µM: Compound concentration: 30 μM. In a few lines: as §1

Test [2] relates to MDA-MB-231 (breast cancer). Nature of the test: Antiproliferative activity (CCK-8 cell viability), MDA-MB-231. The following applies: Homo sapiens, 72 h; for inhibition at 3.3 µM: Compound concentration: 3.3 μM; for inhibition at 10 µM: Compound concentration: 10 μM; for inhibition at 30 µM: Compound concentration: 30 μM. In a few lines: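 MDA-MB-231 breast cancer cells, grown in DMEM with 10% FBS, were plated in 96-well plates at 2,000-5,000 cells/well. Once attached, they were exposed to compound and incubated at 37° C. for 72 h. Viability was then measured with CCK-8 (10 μL per well, 4 h at 37° C.) by absorbance at 450 nm, relative to DMSO vehicle wells.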

The subject of another test is SW480 (colon cancer). In words: Antiproliferative activity (CCK-8 cell viability), SW480. The conditions noted are these: Homo sapiens, 72 h, read-out: Antiproliferative activity in cancerous cells, SW480 (inhibition of cell growth); for inhibition at 3.3 µM: Compound concentration: 3.3 μM; for inhibition at 10 µM: Compound concentration: 10 μM; for inhibition at 30 µM: Compound concentration: 30 μM. In a few lines:
as §1

In test [3] the test system is B16F10 (malignant melanoma). In words: Antiproliferative activity (CCK-8 cell viability), B16F10. The following applies: Mus musculus, 72 h, read-out: Antiproliferative activity in cancerous cells, B16F10 (inhibition of cell growth); for inhibition at 3.3 µM: B16-F10, Compound concentration: 3.3 μM; for inhibition at 10 µM: B16-F10, Compound concentration: 10 μM; for inhibition at 30 µM: B16-F10, Compound concentration: 30 μM. In a few lines:
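B16F10 melanoma cells grown in DMEM with 10% FBS were plated in 96-well plates at 2,000-5,000 cells/well. After attachment they were exposed to compound in medium for 72 h at 37° C. CCK-8 solution (10 μL) was then added, and after 4 h at 37° C absorbance was read at 450 nm.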

The subject of test [4] is A549 (lung adenocarcinoma). In words: Antiproliferative activity (CCK-8 cell viability), A549. The conditions noted are these: Homo sapiens, 72 h, read-out: Antiproliferative activity in cancerous cells, A549 (inhibition of cell growth); for inhibition at 3.3 µM: Compound concentration: 3.3 μM; for inhibition at 10 µM: Compound concentration: 10 μM; for inhibition at 30 µM: Compound concentration: 30 μM. In a few lines: as §1

Setting [5] is: read-out: Antiproliferative activity in cancerous cells, MDA-MB-231 (inhibition of cell growth).
The mark [6] stands for this setting: read-out: Antiproliferative activity in cancerous cells, MDA-MB-231.

With `CCc1ccc2c(c1)C(CC(=O)O)=C(C)/C2=C/c1ccc(COc2ccc(F)c(F)c2)cc1` [B55, (Z)-2-(1-(4-((3,4-Difluorophenoxy)methyl)benzylidene)-5-ethyl-2-methyl-1H-inden-3-yl)acetic acid], the inhibition at 3.3 µM was 30 to 50% in test [1]; less than 30% in the test on HeLa (cervical cancer); less than 30% with HepG2 (liver cancer); no less than 50% in test [2] (setting [5]); less than 30% with SW480 (colon cancer); no less than 50% in test [3]. In addition, the inhibition at 3.3 µM in test [4] was in the range of 30 to 50%. In addition, the inhibition at 10 µM (in test [1]; in the test on HeLa (cervical cancer); with HepG2 (liver cancer); in test [2] (setting [5]); in the test on SW480 (colon cancer); in test [3]) was no less than 50% throughout. In addition, the inhibition at 10 µM in test [4] is no less than 50%.
On to `CC1=C(CC(=O)O)c2cc(F)ccc2/C1=C/c1ccc(Oc2ccc(Cl)cc2)cc1` [E42, (E)-2-(1-(4-(4-Chlorophenoxy)benzylidene)-5-fluoro-2-methyl-1H-inden-3-yl)acetic acid], for which the inhibition at 3.3 µM in test [1] is no less than 50%; with HeLa (cervical cancer), 30 to 50%; with HepG2 (liver cancer), less than 30%; in test [2] (setting [5]), less than 30%; in the test with SW480 (colon cancer), 30 to 50%; in test [3], less than 30%. For the same compound, the inhibition at 3.3 µM in test [4] was less than 30%. The inhibition at 10 µM in test [1] is no less than 50%; with HeLa (cervical cancer) it was no less than 50%; in the test on HepG2 (liver cancer), 30 to 50%; in test [2] (setting [5]), less than 30%; with SW480 (colon cancer), no less than 50%; in test [3], 30 to 50%. Besides, the inhibition at 10 µM in test [4] fell in the range of 30 to 50%. Besides, the inhibition at 30 µM (in test [1]; in the test with HeLa (cervical cancer); with HepG2 (liver cancer); in test [2] (setting [5]); in the test on SW480 (colon cancer); in test [3]) was no less than 50% in each case. Moreover, the inhibition at 30 µM in test [4] is no less than 50%.
For `CC1=C(CC(=O)O)c2cc(F)ccc2/C1=C\c1ccc(CSc2ccc(F)cc2)cc1` [B45, (Z)-2-(5-Fluoro-1-(4-(((4-fluorophenyl)thio)methyl)benzylidene)-2-methyl-1H-inden-3-yl)acetic acid], the inhibition at 3.3 µM (in test [1]; with HeLa (cervical cancer); in the test on HepG2 (liver cancer); in test [2] (setting [5]); with SW480 (colon cancer); in test [3]) was less than 30% in each case. In test [4], the inhibition at 3.3 µM was less than 30%. The inhibition at 10 µM in test [1] is 30 to 50%; in the test on HeLa (cervical cancer), no less than 50%; in the test with HepG2 (liver cancer) it was no less than 50%; in test [2] (setting [5]) it was less than 30%; in the test on SW480 (colon cancer), no less than 50%; in test [3], no less than 50%. Besides, in test [4], the inhibition at 10 µM is less than 30%. In addition, in test [2] (setting [6]), the inhibition at 30 µM was less than 30%.
Regarding `COc1cc(COCc2ccc(/C=C3/C(C)=C(CC(=O)O)c4cc(F)ccc43)cc2)ccc1F` [B113, (Z)-2-(5-Fluoro-1-(4-(((4-fluoro-3-methoxybenzyl)oxy)methyl)benzylidene)-2-methyl-1H-inden-3-yl)acetic acid], the inhibition at 3.3 µM in test [1] is no less than 50%; with HeLa (cervical cancer), less than 30%; with HepG2 (liver cancer), less than 30%; in test [2] (setting [5]), 30 to 50%; in the test on SW480 (colon cancer), less than 30%; in test [3], less than 30%. The inhibition at 3.3 µM in test [4] was in the range of 30 to 50%. The inhibition at 10 µM in test [1] is no less than 50%; with HeLa (cervical cancer), no less than 50%; in the test on HepG2 (liver cancer), less than 30%; in test [2] (setting [5]) it was no less than 50%; in the test with SW480 (colon cancer), no less than 50%; in test [3], less than 30%. Besides, in test [4], the inhibition at 10 µM was no less than 50%.
With `CC1=C(CC(=O)O)c2cccc(F)c2/C1=C/c1cccc(COc2ccccc2)c1` [E8, (E)-2-(7-Fluoro-2-methyl-1-(3-(phenoxymethyl)benzylidene)-1H-inden-3-yl)-acetic acid], the inhibition at 3.3 µM in test [1] was no less than 50%; in the test on HeLa (cervical cancer), 30 to 50%; with HepG2 (liver cancer), 30 to 50%; in test [2] (setting [5]), no less than 50%; in the test on SW480 (colon cancer), 30 to 50%; in test [3], less than 30%. Moreover, in test [4], the inhibition at 3.3 µM was less than 30%. Also, the inhibition at 10 µM in test [1] was no less than 50%; in the test on HeLa (cervical cancer) it was no less than 50%; with HepG2 (liver cancer) it was no less than 50%; in test [2] (setting [5]), no less than 50%; in the test with SW480 (colon cancer), no less than 50%; in test [3] it was 30 to 50%. In test [4], the inhibition at 10 µM is no less than 50%. For the same compound, the inhibition at 30 µM (in test [1]; in the test with HeLa (cervical cancer); with HepG2 (liver cancer); in test [2] (setting [5]); with SW480 (colon cancer); in test [3]) was no less than 50% in each case. The inhibition at 30 µM in test [4] was no less than 50%.
`CC1=C(CC(=O)O)c2cc(Cl)ccc2/C1=C\c1ccc(COc2ccc(C(F)(F)F)cc2)cc1` [B58, (Z)-2-(5-Chloro-2-methyl-1-(4-((4-(trifluoromethyl)phenoxy)methyl)-benzylidene)-1H-inden-3-yl)acetic acid]: the inhibition at 3.3 µM in test [1] is 30 to 50%; in the test on HeLa (cervical cancer), 30 to 50%; with HepG2 (liver cancer), less than 30%; in test [2] (setting [5]) it was less than 30%; in the test with SW480 (colon cancer), less than 30%; in test [3], no less than 50%. Further, in test [4], the inhibition at 3.3 µM was less than 30%. Moreover, the inhibition at 10 µM in test [1] was 30 to 50%; with HeLa (cervical cancer) it was no less than 50%; in the test with HepG2 (liver cancer), no less than 50%; in test [2] (setting [5]) it was less than 30%; in the test with SW480 (colon cancer), 30 to 50%; in test [3] it was no less than 50%. Besides, the inhibition at 10 µM in test [4] fell in the range of 30 to 50%. Moreover, the inhibition at 30 µM in test [2] (setting [6]) lay within 30 to 50%.
`CC1=C(CC(=O)O)c2cc(F)ccc2/C1=C\c1cccc(Oc2ccc(I)cc2)c1` [C100, (Z)-2-(5-Fluoro-1-(3-(4-iodophenoxy)benzylidene)-2-methyl-1H-inden-3-yl)acetic acid]: the inhibition at 3.3 µM (in test [1]; with HeLa (cervical cancer); in the test with HepG2 (liver cancer); in test [2] (setting [5]); in the test on SW480 (colon cancer); in test [3]) was less than 30% in each case. Besides, in test [4], the inhibition at 3.3 µM was less than 30%. The inhibition at 10 µM in test [1] is less than 30%; in the test with HeLa (cervical cancer), no less than 50%; with HepG2 (liver cancer) it was no less than 50%; in test [2] (setting [5]), less than 30%; in the test on SW480 (colon cancer), less than 30%; in test [3] it was 30 to 50%. Besides, the inhibition at 10 µM in test [4] lay in the range of 30 to 50%.
